# Data as given in ChEMBL document CHEMBL5385976, “Recognition of arylmethylidene derivatives of imidazothiazolotriazinones as novel tubulin polymerization inhibitors” (RSC Med Chem, 2024).
# Activity calls are given as the source filed them. No cut-off for these calls is given here.
# How the values were obtained:
# NCI-H226 = test: Antiproliferative activity against human NCI-H226 cells assessed as mean cell growth at 10 uM incubated for 48 hrs by SRB assay relative to control; assay type: functional
# [1] = system: Panel NCI-60 (60 carcinoma cell lines); test: Antiproliferative activity against human panel NCI-60 (60 carcinoma cell lines) incubated for 48 hrs by SRB assay; assay type: functional
# OVCAR-8 = test: Anticancer activity against human OVCAR-8 cells assessed as cell growth at 10 umol/L incubated for 48 hrs by SRB assay relative to control; assay type: functional; details: OVCAR-8, 48 h, dose 10 µmol/L, read-out: Activity
# K562 [2] = test: Inhibition of cell growth in human K562 cells incubated for 72 hrs by MTT assay; assay type: functional, cell-based
# K562 [3] = test: Antiproliferative activity against human K562 cells assessed as mean cell growth at 10 uM incubated for 48 hrs by SRB assay relative to control; assay type: functional
# Panc02 = test: Inhibition of cell growth in mouse Panc02 cells incubated for 72 hrs by MTT assay; assay type: functional
# SK-MEL-28 = test: Anticancer activity against human SK-MEL-28 cells assessed as cell growth at 10 umol/L incubated for 48 hrs by SRB assay relative to control; assay type: functional; details: SK-MEL-28, 48 h, dose 10 µmol/L, read-out: Activity
# COLO357 = test: Inhibition of cell growth in human COLO357 cells incubated for 72 hrs by MTT assay; assay type: functional, cell-based
# OVCAR-3 = test: Anticancer activity against human OVCAR-3 cells assessed as cell growth at 10 umol/L incubated for 48 hrs by SRB assay relative to control; assay type: functional; details: OVCAR-3, 48 h, dose 10 µmol/L, read-out: Activity
# HT-29 [4] = test: Downregulation of beta-actin level in human HT-29 cells upto 100 uM incubated for 48 hrs by Western blot analysis; assay type: functional, cell-based
# Tubulin (Homo sapiens) [5] = target: T1, Tubulin (Homo sapiens) (UniProt P68371+Q9H4B7+P0DPH7+P68366+Q13509+Q71U36+P04350+Q3ZCM7+P07437+P68363+Q9BQE3+Q6PEY2+Q13885+Q9BVA1+Q9BUF5); test: Inhibition of tubulin polymerization in human K562 cells at 0.5 uM incubated for 24 hrs by confocal microscopy; assay type: cell-based
# [6] = Inhibition of cell growth in human HaCaT cells incubated for 72 hrs by MTT assay; assay type: toxicity, cell-based
# HT-29 [7] = test: Inhibition of cell growth in human HT-29 cells incubated for 72 hrs by MTT assay; assay type: functional, cell-based; details: HT-29, 72 h
# T47D = test: Anticancer activity against human T47D cells assessed as cell growth at 10 umol/L incubated for 48 hrs by SRB assay relative to control; assay type: functional; details: dose 10 µmol/L, read-out: Activity
# Tubulin (Homo sapiens) [8] = target: T1, Tubulin (Homo sapiens); test: Inhibition of tubulin polymerization in human HT-29 cells upto 100 uM incubated for 48 hrs by Western blot analysis; assay type: cell-based
Compound,Activity (NCI-H226),GI50 [1],LC50 [1],growth at 10 µM (OVCAR-8),"IC50 (K562 [2]; K562, 72 h)","GI50 (K562 [2]; K562, time 72 hrs)",Activity (K562 [3]),GI50 (Panc02),growth at 10 µM (SK-MEL-28),"IC50 (COLO357; COLO357, 72 h)","GI50 (COLO357; COLO357, time 72 hrs)",growth at 10 µM (OVCAR-3),Activity (HT-29 [4]),inhibition (Tubulin (Homo sapiens) [5]),IC50 at 72 h [6],IC50 (HT-29 [7]),growth at 10 µM (T47D),inhibition (Tubulin (Homo sapiens) [8])
COc1cc2c(c(OC)c1OC)-c1ccc(OC)c(=O)cc1[C@@H](NC(C)=O)CC2 [COLCHICINE],8%,,,,,,,,,,,,,,,,,
CCN1C(=O)N(CC)C2C1NN=c1s/c(=C\c3ccc(Cl)cc3Cl)c(=O)n12 (stereo not drawn),,80 nM,> 96400 nM,10.8%,2 nM,0.64 nM,18%,16 nM,45.7%,6 nM,16 nM,13.4%,Active,Active,3.5 nM,5.5 nM,58.8%,Active
